Data set [1] is described as follows: Cell count assay (trypan blue). The note with it: human; for viability at 24 h: read-out: Number of viable cells after 24 h of ligand treatment; for viability at 48 h: read-out: Number of viable cells after 48 h of ligand treatment. The format is cell-based. The arrangement: concentration or dose not given beside the values. The procedure: (§1) Normal and tumor cell lines were seeded at 20000–40000 cells/cm^2 with 0.2 mL/cm^2 media and incubated for 48 h at 37°C, 6% CO2, 95% relative humidity. […] After 24 h and 48 h of incubation, cells were washed with 300 µl PBS or 0.02% EDTA, trypsinized, followed by harvesting at 37°C. 200 µl cell suspension was transferred into 1.5 ml microcentrifuge tube. To the cell suspension, 300 µl PBS followed by 500 µl of 0.4% trypan blue solution was added. To get the homogenised solution, the microcentrifuge tube was gently tapped for 5 min, 20 µl of cell suspension was loaded in to a chamber of the haemocytometer.

Data set [2] relates to HQF DNA [d(T2AG3)4]. Nature of the data set: SYBR Green melting study with HQF DNA. The format is binding, human. The following applies: melting temperature of HQF DNA (5 µM) in presence of 1 µM ligand. On the procedure:
When quadruplex DNA melts to form ssDNA structure, SG fluorescence intensity gradually reduces as SG has no binding to ssDNA. Each time, 5 µM of HQF DNA [d(T2AG3)4)], 5 µM of dsDNA (prepared by mixing equal concentration of poly-dA-dT and poly-dT-dA), 5 µM ssDNA ( poly dT alone) and 1 µM of each ligand was incubated at 4°C for 16 h, and used for melting studies. […] Affinity, stoichiometry and thermodynamic parameters for quadruplex-ligand complex were studied with 60 µM of ligand and 10 µM of HQF DNA using Microcal VP-ITC (Northampton, MA, USA). Ligand addition to G-quadruplex DNA was made every 180 seconds. Titration experiments were performed thrice and blank correction was made each time to minimize error.

The test system of data set [3] is B16F10. Nature of the data set: Cell count assay (trypan blue). The following applies: for Number of viable cells after 24 h of ligand treatment: B16F10, 24 h; for Number of viable cells after 48 h of ligand treatment: B16F10, 48 h. The format is cell-based, human. On the procedure:
as §1

Data set [4] has as its system A549. In words: Cell count assay (trypan blue). The following applies: for Number of viable cells after 24 h of ligand treatment: A549, 24 h; for Number of viable cells after 48 h of ligand treatment: A549, 48 h. The data set is classed as cell-based, human. The procedure: as §1
Data set [5] relates to MCF-7. In words: Cell count assay (trypan blue). The format is cell-based, human. The following applies: for Number of viable cells after 24 h of ligand treatment: MCF-7, 24 h; for Number of viable cells after 48 h of ligand treatment: MCF-7, 48 h. The procedure:
as §1

Setting [6] is: CRL-2115 cells (normal cell line), CRL-2115, 24 h.
Setting [7] is: CRL-2115 cells (normal cell line), CRL-2115, 48 h.
Where [8] appears, read: CRL-2120 cells (normal cell line), CRL-2120, 24 h.
[9] abbreviates: CRL-2120 cells (normal cell line), CRL-2120, 48 h.
Setting [10] is: NCM-460 cells (normal cell line), NCM-460, 24 h.
Where [11] appears, read: NCM-460 cells (normal cell line), NCM-460, 48 h.

Read-outs that look alike come from different tables or passages of the source. Marks after values point to notes of the source that are not given here.

Regarding `Oc1cccc(-c2c(-c3ccccc3)nnn2CC2CCCCO2)c1` (centres unmarked) [Ligand L13, 3-(5-Phenyl-3-((tetrahydro-2H-pyran-2-yl)methyl)-3H-1,2,3-triazol-4-yl)phenol], the viability at 24 h in data set [1] (setting [6]), in data set [1] (setting [8]) and in data set [1] (setting [10]) was 80 to 90% in each case. The viability at 48 h in data set [1] (setting [7]), in data set [1] (setting [9]) and in data set [1] (setting [11]) was 80 to 90% throughout. The Tm in data set [2] is reported as 33 ^o C. Besides, the “Number of viable cells after 24 h of ligand treatment” value is “+ (Viable cells in the range of 80%–90%)” in data set [3], “+/+ (Viable cells in the range of 80%–90%)” in data set [4] and “+/+ (Viable cells in the range of 80%–90%)” in data set [5]. Moreover, the “Number of viable cells after 48 h of ligand treatment” value is “++ (Viable cells in the range of 50%–60%)” in data set [3], “+/+ (Viable cells in the range of 80%–90%)” in data set [4] and “+/+ (Viable cells in the range of 80%–90%)” in data set [5].
As to `COc1ccc(-c2c(-c3ccccc3)nnn2CC2CCCCO2)cc1` (centres unmarked) [Ligand L14, 5-(4-Methoxyphenyl)-4-phenyl-1-((tetrahydro-2H-pyran-2-yl)methyl)-1H-1,2,3-triazole], the viability at 24 h in data set [1] (setting [6]), in data set [1] (setting [8]) and in data set [1] (setting [10]) was 80 to 90% each time. In addition, the viability at 48 h was in the range of 80 to 90% in data set [1] (setting [7]), 80 to 90% in data set [1] (setting [9]) and 50 to 60% in data set [1] (setting [11]). Also, the Tm in data set [2] is reported as 27 ^o C. Moreover, the “Number of viable cells after 24 h of ligand treatment” value in data set [3], in data set [4] and in data set [5] was “+ (Viable cells in the range of 80%–90%)” throughout. Also, the “Number of viable cells after 48 h of ligand treatment” value in data set [3], in data set [4] and in data set [5] was “++ (Viable cells in the range of 50%–60%)” throughout.

Values taken from article PMC3747139 (PLoS ONE, 2013).
